According to US11713344B2 (DONG-A ST CO., LTD., priority 2017, dated 2023):

Columns and labels:
Human GLP-1 receptors = Human GLP-1 receptors (Homo sapiens, UniProt P43220); experiment: GLP-1 receptor activation assay (CRE-luciferase reporter, CHO-K1)
Protocol: Then, the resulting increased luciferase activity was evaluated as a measurement of the effect on each receptor activation.
After 3 hours of transfection, medium was exchanged to Alpha Minimal Essential Medium (α-MEM) comprising 10% fetal bovine serum (FBS). Next day, the medium was exchanged to α-MEM comprising the analog of the present invention and 0.1% bovine serum albumin (BSA). After 6 hours, dual luciferase assay reagent was added in the same amount as the medium in which the cells were submerged, and firefly luciferase and Renilla luciferase activities were continuously measured. Firefly luciferase activity values were corrected against Renilla luciferase activity to yield transfection efficiency.

Human glucagon receptors = Human glucagon receptors (Homo sapiens, UniProt P47871); experiment: Glucagon receptor activation assay (CRE-luciferase reporter, CHO-K1)
Human glucagon receptors, sequence (P47871 26-477): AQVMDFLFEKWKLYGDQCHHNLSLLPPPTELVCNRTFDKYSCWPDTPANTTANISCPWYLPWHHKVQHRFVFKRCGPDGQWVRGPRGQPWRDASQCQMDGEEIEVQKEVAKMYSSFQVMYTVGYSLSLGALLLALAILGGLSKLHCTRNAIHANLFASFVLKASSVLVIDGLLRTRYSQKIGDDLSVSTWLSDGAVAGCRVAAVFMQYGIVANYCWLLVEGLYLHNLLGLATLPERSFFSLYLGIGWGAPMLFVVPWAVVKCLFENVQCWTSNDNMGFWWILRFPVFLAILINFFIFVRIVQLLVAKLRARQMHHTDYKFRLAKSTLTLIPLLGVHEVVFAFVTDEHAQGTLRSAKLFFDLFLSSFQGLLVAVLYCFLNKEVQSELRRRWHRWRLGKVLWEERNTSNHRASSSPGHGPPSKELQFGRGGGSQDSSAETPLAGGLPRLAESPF

Human GLP-1 receptors, sequence (P43220 24-463): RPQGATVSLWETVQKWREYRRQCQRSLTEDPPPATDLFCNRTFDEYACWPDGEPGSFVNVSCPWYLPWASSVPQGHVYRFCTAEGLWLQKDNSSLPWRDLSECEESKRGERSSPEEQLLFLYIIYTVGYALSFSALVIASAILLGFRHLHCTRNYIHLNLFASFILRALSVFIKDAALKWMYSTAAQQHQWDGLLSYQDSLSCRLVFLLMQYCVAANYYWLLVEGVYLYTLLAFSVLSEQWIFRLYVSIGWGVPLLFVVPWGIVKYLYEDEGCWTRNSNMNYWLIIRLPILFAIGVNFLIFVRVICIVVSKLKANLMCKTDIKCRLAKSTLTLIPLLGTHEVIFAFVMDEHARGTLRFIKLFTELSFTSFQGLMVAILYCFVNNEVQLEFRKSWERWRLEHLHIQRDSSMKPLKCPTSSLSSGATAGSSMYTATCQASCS

| Structure (SMILES) | EC50 (Human GLP-1 receptors) [nM] | EC50 (Human glucagon receptors) [nM] |
| --- | --- | --- |
| CSCC[C@H](NC(=O)[C@H](CC(C)C)NC(=O)[C@H](Cc1c[nH]c2ccccc12)NC(=O)[C@H](CCC(N)=O)NC(=O)[C@@H](NC(=O)[C@H](Cc1ccccc1)NC(=O)[C@H](CC(=O)O)NC(=O)[C@H](CCC(N)=O)NC(=O)[C@H](C)NC(=O)[C@H](CCCNC(=N)N)NC(=O)[C@H](CCCNC(=N)N)NC(=O)C(C)(C)NC(=O)[C@H](CC(=O)O)NC(=O)[C@H](CC(C)C)NC(=O)[C@H](Cc1ccc(O)cc1)NC(=O)[C@H](CCCCN)NC(=O)[C@H](CO)NC(=O)[C@H](CCCCNC(=O)COCCOCCNC(=O)COCCOCCNC(=O)CC[C@H](NC(=O)CCCCCCCCCCCCCCC(=O)NCC(=O)O)C(=O)O)NC(=O)[C@H](CC(=O)O)NC(=O)[C@H](CO)NC(=O)[C@@H](NC(=O)[C@H](Cc1ccccc1)NC(=O)[C@@H](NC(=O)CNC(=O)[C@H](CCC(N)=O)NC(=O)C(C)(C)NC(=O)[C@@H](N)Cc1c[nH]cn1)[C@@H](C)O)[C@@H](C)O)C(C)C)C(=O)N[C@@H](CC(N)=O)C(=O)N[C@H](C(=O)N[C@@H](CCCCN)C(=O)O)[C@@H](C)O [Compound 45] | 0.1 to 1 | 0.1 to 1 |
| CSCC[C@H](NC(=O)[C@H](CC(C)C)NC(=O)[C@H](Cc1c[nH]c2ccccc12)NC(=O)[C@H](CCC(N)=O)NC(=O)[C@@H](NC(=O)[C@H](Cc1ccccc1)NC(=O)[C@H](CC(=O)O)NC(=O)[C@H](CCC(N)=O)NC(=O)[C@H](C)NC(=O)[C@H](CCCNC(=N)N)NC(=O)[C@H](CCCNC(=N)N)NC(=O)C(C)(C)NC(=O)[C@H](CC(=O)O)NC(=O)[C@H](CC(C)C)NC(=O)[C@H](Cc1ccc(O)cc1)NC(=O)[C@H](CCCCN)NC(=O)[C@H](CO)NC(=O)[C@H](CCCCNC(=O)COCCOCCNC(=O)COCCOCCNC(=O)CC[C@H](NC(=O)CCCCCCCCCCCCCCC(=O)N[C@H](C(=O)O)C(C)C)C(=O)O)NC(=O)[C@H](CC(=O)O)NC(=O)[C@H](CO)NC(=O)[C@@H](NC(=O)[C@H](Cc1ccccc1)NC(=O)[C@@H](NC(=O)CNC(=O)[C@H](CCC(N)=O)NC(=O)C(C)(C)NC(=O)[C@@H](N)Cc1c[nH]cn1)[C@@H](C)O)[C@@H](C)O)C(C)C)C(=O)N[C@@H](CC(N)=O)C(=O)N[C@H](C(=O)N[C@@H](CCCCN)C(=O)O)[C@@H](C)O [Compound 46] | 0.1 to 1 | 0.1 to 1 |
| CSCC[C@H](NC(=O)[C@H](CC(C)C)NC(=O)[C@H](Cc1c[nH]c2ccccc12)NC(=O)[C@H](CCC(N)=O)NC(=O)[C@@H](NC(=O)[C@H](Cc1ccccc1)NC(=O)[C@H](CC(=O)O)NC(=O)[C@H](CCC(N)=O)NC(=O)[C@H](C)NC(=O)[C@H](CCCNC(=N)N)NC(=O)[C@H](CCCNC(=N)N)NC(=O)C(C)(C)NC(=O)[C@H](CC(=O)O)NC(=O)[C@H](CC(C)C)NC(=O)[C@H](Cc1ccc(O)cc1)NC(=O)[C@H](CCCCN)NC(=O)[C@H](CO)NC(=O)[C@H](CCCCNC(=O)COCCOCCNC(=O)COCCOCCNC(=O)CC[C@H](NC(=O)CCCCCCCCCCCCCCCCCCC(=O)O)C(=O)O)NC(=O)[C@H](CC(=O)O)NC(=O)[C@H](CO)NC(=O)[C@@H](NC(=O)[C@H](Cc1ccccc1)NC(=O)[C@@H](NC(=O)CNC(=O)[C@H](CCC(N)=O)NC(=O)C(C)(C)NC(=O)[C@@H](N)Cc1c[nH]cn1)[C@@H](C)O)[C@@H](C)O)C(C)C)C(=O)N[C@@H](CC(N)=O)C(=O)N[C@H](C(=O)N[C@@H](CCCCN)C(=O)O)[C@@H](C)O [Compound 44] | 0.1 to 1 | > 1 |
| CCCCCCCCCCCCCCCCCC(=O)N[C@@H](CCC(=O)NCCOCCOCC(=O)NCCOCCOCC(=O)NCCCC[C@H](NC(=O)[C@H](CC(=O)O)NC(=O)[C@H](CO)NC(=O)[C@@H](NC(=O)[C@H](Cc1ccccc1)NC(=O)[C@@H](NC(=O)CNC(=O)[C@H](CCC(N)=O)NC(=O)C(C)(C)NC(=O)[C@@H](N)Cc1c[nH]cn1)[C@@H](C)O)[C@@H](C)O)C(=O)N[C@@H](CO)C(=O)N[C@@H](CCCCN)C(=O)N[C@@H](Cc1ccc(O)cc1)C(=O)N[C@@H](CC(C)C)C(=O)N[C@@H](CC(=O)O)C(=O)N[C@H]1CCC(=O)NCC(=O)NCCCC[C@@H](C(=O)N[C@@H](CC(=O)O)C(=O)N[C@@H](Cc2ccccc2)C(=O)N[C@H](C(=O)N[C@@H](CCC(N)=O)C(=O)N[C@@H](Cc2c[nH]c3ccccc23)C(=O)N[C@@H](CC(C)C)C(=O)N[C@@H](CCSC)C(=O)N[C@@H](CC(N)=O)C(=O)N[C@H](C(=O)N[C@@H](CCCCN)C(=O)O)[C@@H](C)O)C(C)C)NC(=O)[C@H](C)NC(=O)[C@H](CCCNC(=N)N)NC(=O)[C@H](CCCNC(=N)N)NC1=O)C(=O)O [Compound 35, H-HAibQGTFTSDZSKYLDERRAKDFVQWLMNTK-OH] | < 0.01 | < 0.01 |

Continued, values first:

| EC50 (Human GLP-1 receptors) [nM] | EC50 (Human glucagon receptors) [nM] | Structure (SMILES) |
| --- | --- | --- |
| < 0.01 | < 0.01 | CCCCCCCCCCCCCCCCCC(=O)N[C@@H](CCC(=O)NCCOCCOCC(=O)NCCOCCOCC(=O)NCCCC[C@H](NC(=O)[C@H](CC(=O)O)NC(=O)[C@H](CO)NC(=O)[C@@H](NC(=O)[C@H](Cc1ccccc1)NC(=O)[C@@H](NC(=O)CNC(=O)[C@H](CCC(N)=O)NC(=O)C(C)(C)NC(=O)[C@@H](N)Cc1c[nH]cn1)[C@@H](C)O)[C@@H](C)O)C(=O)N[C@@H](CO)C(=O)N[C@@H](CCCCN)C(=O)N[C@@H](Cc1ccc(O)cc1)C(=O)N[C@@H](CC(C)C)C(=O)N[C@@H](CC(=O)O)C(=O)N[C@H]1CCC(=O)NCCCC[C@@H](C(=O)N[C@@H](CC(=O)O)C(=O)N[C@@H](Cc2ccccc2)C(=O)N[C@H](C(=O)N[C@@H](CCC(N)=O)C(=O)N[C@@H](Cc2c[nH]c3ccccc23)C(=O)N[C@@H](CC(C)C)C(=O)N[C@@H](CCSC)C(=O)N[C@@H](CC(N)=O)C(=O)N[C@H](C(=O)N[C@@H](CCCCN)C(=O)O)[C@@H](C)O)C(C)C)NC(=O)[C@H](C)NC(=O)[C@H](CCCNC(=N)N)NC(=O)[C@H](CCCNC(=N)N)NC1=O)C(=O)O [Compound 14, H-HAibQGTFTSDZSKYLDERRAKDFVQWLMNTK-OH] |
| < 0.01 | < 0.01 | CCCCCCCCCCCCCCCCCC(=O)N[C@@H](CCC(=O)NCCOCCOCC(=O)NCCOCCOCC(=O)NCCOCCOCC(=O)NCCCC[C@H](NC(=O)[C@H](CC(=O)O)NC(=O)[C@H](CO)NC(=O)[C@@H](NC(=O)[C@H](Cc1ccccc1)NC(=O)[C@@H](NC(=O)CNC(=O)[C@H](CCC(N)=O)NC(=O)C(C)(C)NC(=O)[C@@H](N)Cc1c[nH]cn1)[C@@H](C)O)[C@@H](C)O)C(=O)N[C@@H](CO)C(=O)N[C@@H](CCCCN)C(=O)N[C@@H](Cc1ccc(O)cc1)C(=O)N[C@@H](CC(C)C)C(=O)N[C@@H](CC(=O)O)C(=O)N[C@H]1CCC(=O)NCCCC[C@@H](C(=O)N[C@@H](CC(=O)O)C(=O)N[C@@H](Cc2ccccc2)C(=O)N[C@H](C(=O)N[C@@H](CCC(N)=O)C(=O)N[C@@H](Cc2c[nH]c3ccccc23)C(=O)N[C@@H](CC(C)C)C(=O)N[C@@H](CCSC)C(=O)N[C@@H](CC(N)=O)C(=O)N[C@H](C(=O)N[C@@H](CCCCN)C(=O)O)[C@@H](C)O)C(C)C)NC(=O)[C@H](C)NC(=O)[C@H](CCCNC(=N)N)NC(=O)[C@H](CCCNC(=N)N)NC1=O)C(=O)O [Compound 20, H-HAibQGTFTSDZSKYLDERRAKDFVQWLMNTK-OH] |
